Results reported in patent publication US20230033195A1, “METHODS AND COMPOSITIONS FOR IMPROVING COGNITIVE FUNCTION” (THE JOHNS HOPKINS UNIVERSITY, priority 2011, published 2023).

How the values were obtained:
[1] = test system: aged-impaired (AI) rats; assay: eight-arm Radial Arm Maze (RAM) task with one-hour delay, spatial memory retention; type: in vivo, rat
[2] = test system: memory-impaired aged rats; details: cited from earlier work
[3] = aged rats, chronic subcutaneous 100 mg/kg/day; cited from earlier work

SMILES | effective in reducing the number of errors, on its own ([1]; valproate subcutaneous 25 mg/kg) | effective in reducing the number of errors, on its own ([1]; valproate subcutaneous 50 mg/kg) | effective in reducing the number of errors, on its own ([1]; valproate subcutaneous 100 mg/kg) | treatment of cognitive impairment ([2]; chronic subcutaneous 50 mg/kg/day) | blood total valproate level [3] [µg/ml plasma] | performance in a memory test ([2]; chronic subcutaneous 100 mg/kg/day)
CCCC(CCC)C(=O)O [valproate, 2-propylpentanoate] | not | not | effective | not effective | – | –
CCCC(CCC)C(=O)[O-].[Na+] [sodium valproate] | – | – | – | – | 10 | significantly improved
